# Measured values from patent US12344599B2, “Prodigiosin analogs and methods of use” (Institute For Cancer Research, priority 2016, dated 2025).
# Assays:
# [1] = tested on: γ-H2AX in HT29 and SW480 cells; assay: γ-H2AX DNA damage marker, western blot and immunofluorescence staining; type: cell-based, human
# Description: After treatment, protein lysates were collected for Western blot analysis. A total of […] of protein was used for SDS-PAGE. After primary and secondary antibody incubations, the signal was detected by a chemiluminescence detection kit, imaged by Syngene (Imgen Technologies). Antibodies for PUMA (for IHC), p53 (Santa Cruz Biotechnology), caspase 8, cleaved caspase 8, caspase 9, caspase 3, cleavage PARP, eIF2α, p-eIF2α (Ser51), CHOP, ATF4, DR5, FOXO3a, p-FOXO3a (Ser253), NF-κB p65, p-NF-κB p65 (Ser536), c-Jun, p-c-Jun (Ser63), JNK, p-JNK (Thr183/Tyr185), PUMA (for WB), c-Myc, phosphor-S62-cMyc (Cell Signaling Technology), Noxa, p21 (Calbiochem), p73 (Bethyl laboratories Inc), Ran (BD Biosciences), […] (Sigma).
# A total of 5×10^4 cells were seeded in each well of 8-well chamber slides. After treatment, cells were fixed and permeabilized by methanol:acetone (1:1) for 20 minutes at −20° C. Fixed cells were blocked by 2% BSA for 1 hour, followed by primary antibody incubation for 1 hours and Cy3-conjuated secondary antibody incubation for 1 hour at room temperature. After washing, cells were stained with DAPI for 10 minutes at room temperature. Cells were mounted, and examined by fluorescence microscopy.
# DNA damage induces the p53 pathway and leads to cell apoptosis. To study whether the p53 pathway restoration by compound PG3-Oc is due to DNA damage, the uptake and localization of PG3-Oc was investigated in cells. PG3-Oc and prodigiosin are red fluorescent compounds, and their localization in live cells can be monitored by fluorescence microscopy. PG3-Oc and prodigiosin rapidly entered cells within 2 hours of incubation and remained in the cytosol at the 8-hour time point in HT29 and SW480 cells (FIG. 46). […] Baldino, et al. reported that prodigiosin localized to the cytoplasm, but not within the nucleus, and no γ-H2AX signal was detected in A549 cancer cells (Baldino et al., Bioorg Med Chem Lett, 2006, 16, 701-704). […]
# HCT116 p53−/− cells = assay: qRT-PCR of p53 target gene mRNA, HCT116 p53−/−; type: cell-based, human; settings: 1 μM
# Description: • 1) Cell lines: HT29, SW480, DLD-1, HCT116, and p53-null HCT116 cells, H1975, MDA-MD-231, U251, FaDu, CAL-27, PANC-1, Aspc-1, and MRC5 were obtained from the ATCC and cultured as recommended. Cells were regularly authenticated by bioluminescence, growth, and morphologic observation. The cells were routinely examined for Mycoplasma and all cell lines underwent STR authentication. • 2) Western blotting: After treatment, protein lysates were collected for Western blot analysis. 15 μg of protein was used for SDS-PAGE. After primary and secondary antibody incubations, the signal was detected by chemiluminescent detection kit, imaged by Syngene (Imgen Technologies). […] The cell viability was assessed by CellTiterGlo bioluminescent cell proliferation assay (Promega), following the manufacturer's protocol. Bioluminescence imaging was measured using the IVIS imager. Percentage of cell viability (mean±SEM) at each dose was calculated against the respective DMSO control. The IC50 values were determined from the sigmoidal dose-response curves using GraphPad Prims4. • 4) Caspase activity assay: Cells were seeded in 96-well plate (1×10^4 cells/well). […] The caspase 3/7 activity was assessed by Caspase-Glo® 3/7 Assay kit (Promega), following the manufacturer's protocol. Bioluminescence imaging was measured using the IVIS imager. […]
compound,measurement,setting,value
"CCCCCCCCOC(=O)CCc1c(C)[nH]c(/C=C2\N=C(c3ccc[nH]3)C=C2OC)c1C [PG3-Oc, Octyl (Z)-3-(5-((4′-methoxy-1H,5′H-[2,2′-bipyrrol]-5′-ylidene)methyl)-2,4-dimethyl-1H-pyrrol-3-yl)propanoate]",induction of 65-H2AX (DNA damage marker) / foci formation,[1],did not induce
same,change of DR5 mRNA,HCT116 p53−/− cells,no significant change
same,induction of p21 mRNA,HCT116 p53−/− cells; 8 and 19 hours post-treatment,Over 3 fold
